Measurements published in patent US7109351B1, “Fused pyrrolecarboxamides; GABA brain receptor ligands” (Neurogen Corporation, priority 1999, dated 2006).

Molecular target: benzodiazepine site of the GABAA receptor
Assay: GABAA receptor binding assay (displacement of 3H-Ro15-1788)
Conditions: rat cortical tissue homogenate, 0.5 nM 3H-Ro15-1788 [3H-Flumazenil], 30 min at 4° C.

- Ki: 12 nM
Compound: CC1CC(=O)c2c(C(=O)Nc3ccc(OCCO)nc3)c[nH]c2C1 (stereo not shown) [Compound 15, N-[(2-Hydroxyethoxy)pyrid-5-yl]-4-oxo-6-methyl-4,5,6,7-tetrahydro-1H-indole-3-carboxamide]
